# In patent US9938269B2, “Inhibitor compounds of phosphodiesterase type 10A” (ABBVIE INC., priority 2011, dated 2018):
# Where a name gives a salt, the structure may show the parent alone.
# Experiments:
# [1] = Determination of the microsomal half-life, rat liver microsomes; conditions: rat, liver microsomes, pH 7.4
# PDE10A (human) = target: T1, PDE10A (human) (Homo sapiens, UniProt Q9Y233); experiment: Measurement of PDE activity (HTRF cAMP kit), human PDE10A; assay type: biochemical; conditions: PDE enzymatic reaction, substrate 20 nM for PDE10, 60 minutes at 29 C
# T1 construct: purchased BPS Bioscience
# How it was run: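 HTRF detection of cAMP left after hydrolysis, expressed as percent of uninhibited control to derive IC50. Reaction: serially diluted inhibitor mixed with recombinant enzyme, started with 20 nM cAMP, 60 min at 29 °C in Tris-HCl pH 7.5 buffer containing MgCl2 and BSA.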
# [2] = Determination of the microsomal half-life, human liver microsomes; conditions: human, liver microsomes, pH 7.4
# T1 sequence (Q9Y233 whole entry): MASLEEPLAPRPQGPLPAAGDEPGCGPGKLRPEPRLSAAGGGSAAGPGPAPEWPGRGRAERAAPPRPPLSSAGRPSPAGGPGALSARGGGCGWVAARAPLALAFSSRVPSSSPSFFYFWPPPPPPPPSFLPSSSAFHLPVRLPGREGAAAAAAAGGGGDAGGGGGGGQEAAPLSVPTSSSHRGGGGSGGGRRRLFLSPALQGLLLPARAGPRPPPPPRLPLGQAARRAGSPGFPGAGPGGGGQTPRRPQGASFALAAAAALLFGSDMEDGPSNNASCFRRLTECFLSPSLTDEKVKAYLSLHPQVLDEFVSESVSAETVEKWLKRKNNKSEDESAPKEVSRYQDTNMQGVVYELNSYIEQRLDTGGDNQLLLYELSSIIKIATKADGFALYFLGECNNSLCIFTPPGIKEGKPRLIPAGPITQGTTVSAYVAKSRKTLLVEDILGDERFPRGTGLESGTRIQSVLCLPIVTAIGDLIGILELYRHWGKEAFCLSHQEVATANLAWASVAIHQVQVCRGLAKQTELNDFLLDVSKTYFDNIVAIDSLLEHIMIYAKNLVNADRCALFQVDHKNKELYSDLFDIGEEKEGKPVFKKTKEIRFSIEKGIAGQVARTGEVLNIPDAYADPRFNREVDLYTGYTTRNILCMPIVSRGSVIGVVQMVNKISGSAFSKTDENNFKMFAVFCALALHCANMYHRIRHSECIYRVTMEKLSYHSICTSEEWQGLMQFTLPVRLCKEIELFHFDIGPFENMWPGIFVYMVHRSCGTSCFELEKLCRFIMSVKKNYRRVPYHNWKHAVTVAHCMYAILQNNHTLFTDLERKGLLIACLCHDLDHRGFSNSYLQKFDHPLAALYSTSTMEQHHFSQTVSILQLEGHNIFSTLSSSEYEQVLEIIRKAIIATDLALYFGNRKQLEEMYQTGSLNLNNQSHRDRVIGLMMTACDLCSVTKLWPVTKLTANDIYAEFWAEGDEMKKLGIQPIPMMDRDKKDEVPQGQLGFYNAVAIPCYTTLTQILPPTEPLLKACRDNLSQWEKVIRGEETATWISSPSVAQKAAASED
Structure (SMILES),microsomal CLint at 0.5 μM [1],IC50 (PDE10A (human)),microsomal CLint at 0.5 μM [2]
"CCc1csc(CCN2Cc3nccc(N4CCOCC4)c3C2=O)n1 [compound 516, 6-[2-(4-Ethylthiazol-2-yl)ethyl]-4-morpholino-7H-pyrrolo[3,4-b]pyridin-5-one]",100 to 220 µL/min/mg,< 100 nM,< 100 µL/min/mg
"O=C1c2c(N3CCOCC3)ccnc2CN1CCc1nc(C2CC2)cs1 [compound 518, 6-[2-(4-Cyclopropylthiazol-2-yl)ethyl]-4-morpholino-7H-pyrrolo[3,4-b]pyridin-5-one]",100 to 220 µL/min/mg,< 100 nM,< 100 µL/min/mg
"Cc1nc(CCN2Cc3nccc(N4CCOCC4)c3C2=O)sc1C [compound 519, 6-[2-(4,5-Dimethylthiazol-2-yl)ethyl]-4-morpholino-7H-pyrrolo[3,4-b]pyridin-5-one]",> 220 µL/min/mg,< 100 nM,< 100 µL/min/mg
"Cc1cnc(CCN2Cc3nccc(N4CCOCC4)c3C2=O)cc1C [compound 520, 6-[2-(4,5-Dimethyl-2-pyridyl)ethyl]-4-morpholino-7H-pyrrolo[3,4-b]pyridin-5-one]",100 to 220 µL/min/mg,100 to 200 nM,< 100 µL/min/mg
"Cc1ccnc(CCN2Cc3nccc(N4CCOCC4)c3C2=O)c1 [compound 521, 6-[2-(4-Methyl-2-pyridyl)ethyl]-4-morpholino-7H-pyrrolo[3,4-b]pyridin-5-one]",< 100 µL/min/mg,200 to 500 nM,< 100 µL/min/mg
"Cc1cccnc1CCN1Cc2nccc(N3CCOCC3)c2C1=O [compound 522, 6-[2-(3-Methyl-2-pyridyl)ethyl]-4-morpholino-7H-pyrrolo[3,4-b]pyridin-5-one]",< 100 µL/min/mg,100 to 200 nM,< 100 µL/min/mg
"Cc1occc1-c1ccnc2c1C(=O)N(CCc1cn3ccccc3n1)C2 [compound 524, 6-(2-Imidazo[1,2-a]pyridin-2-ylethyl)-4-(2-methyl-3-furyl)-7H-pyrrolo[3,4-b]pyridin-5-one]",> 220 µL/min/mg,100 to 200 nM,100 to 220 µL/min/mg
"O=C1c2c(-c3ccoc3)ccnc2CN1CCc1cn2cc(F)ccc2n1 [compound 526, 6-[2-(6-Fluoroimidazo[1,2-a]pyridin-2-yl)ethyl]-4-(3-furyl)-7H-pyrrolo[3,4-b]pyridin-5-one]",100 to 220 µL/min/mg,< 100 nM,< 100 µL/min/mg
"COc1ccnc2c1C(=O)N(CCc1ccc3ccccc3n1)C2 [compound 528, 4-Methoxy-6-(2-quinolin-2-yl-ethyl)-6,7-dihydro-pyrrolo[3,4-b]pyridin-5-one]",< 100 µL/min/mg,< 100 nM,< 100 µL/min/mg
"CN(C)CCOc1ccc(-c2ccncc2)c2c1CN(CCc1ccc3ccccc3n1)C2=O [compound 529, 4-(2-Dimethylamino-ethoxy)-7-pyridin-4-yl-2-(2-quinolin-2-yl-ethyl)-2,3-dihydro-isoindol-1-one]",< 100 µL/min/mg,< 100 nM,< 100 µL/min/mg
"O=C1c2c(N3CCC(O)CC3)ccnc2CN1CCc1ccc2ccccc2n1 [compound 530, 4-(4-Hydroxy-piperidin-1-yl)-6-(2-quinolin-2-yl-ethyl)-6,7-dihydro-pyrrolo[3,4-b]pyridin-5-one trifluoroacetate]",100 to 220 µL/min/mg,< 100 nM,< 100 µL/min/mg
"COC(=O)C1CN(Cc2cccc3c2C(=O)N(CCc2ccc4ccccc4n2)C3)C1 [compound 531, 1-[3-Oxo-2-(2-quinolin-2-yl-ethyl)-2,3-dihydro-1H-isoindol-4-ylmethyl]-azetidine-3-carboxylic acid methyl ester]",< 100 µL/min/mg,< 100 nM,< 100 µL/min/mg
"O=C1c2c(-c3ccncc3F)ccnc2CN1CCc1cn2ccccc2n1 [compound 534, 4-(3-Fluoro-pyridin-4-yl)-6-(2-imidazo[1,2-a]pyridin-2-yl-ethyl)-6,7-dihydro-pyrrolo[3,4-b]pyridin-5-one]",< 100 µL/min/mg,< 100 nM,< 100 µL/min/mg
"Cc1ccc2c(c1)nc(CCN1Cc3nccc(-c4cncnc4)c3C1=O)n2C [compound 535, 6-[2-(1,5-Dimethyl-1H-benzoimidazol-2-yl)-ethyl]-4-pyrimidin-5-yl-6,7-dihydro-pyrrolo[3,4-b]pyridin-5-one]",< 100 µL/min/mg,< 100 nM,< 100 µL/min/mg
"Cc1ccc2c(c1)nc(CCN1Cc3nccc(-c4ccncc4)c3C1=O)n2C [compound 536, 6-[2-(1,5-Dimethyl-1H-benzoimidazol-2-yl)-ethyl]-4-pyridin-4-yl-6,7-dihydro-pyrrolo[3,4-b]pyridin-5-one]",< 100 µL/min/mg,< 100 nM,100 to 220 µL/min/mg
"O=C1c2cccc(-c3cscn3)c2CN1CCc1cn2ccccc2n1 [compound 537, 2-(2-Imidazo[1,2-a]pyridin-2-ylethyl)-4-thiazol-4-yl-isoindolin-1-one]",100 to 220 µL/min/mg,< 100 nM,< 100 µL/min/mg
"O=C1c2c(-c3cn[nH]c3)ccnc2CN1CCc1nc2ccccc2s1 [compound 538, 6-[2-(1,3-Benzothiazol-2-yl)ethyl]-4-(1H-pyrazol-4-yl)-7H-pyrrolo[3,4-b]pyridin-5-one trifluoroacetate]",100 to 220 µL/min/mg,< 100 nM,< 100 µL/min/mg
"Cc1ccc2c(c1)nc(CCN1Cc3nccc(-c4cccnc4)c3C1=O)n2C [compound 539, 6-[2-(1,5-Dimethylbenzimidazol-2-yl)ethyl]-4-(3-pyridyl)-7H-pyrrolo[3,4-b]pyridin-5-one]",< 100 µL/min/mg,< 100 nM,< 100 µL/min/mg
"Cc1ccc2c(c1)nc(CCN1Cc3nccc(-c4ccnn4C)c3C1=O)n2C [compound 540, 6-[2-(1,5-Dimethylbenzimidazol-2-yl)ethyl]-4-(2-methylpyrazol-3-yl)-7H-pyrrolo[3,4-b]pyridin-5-one]",< 100 µL/min/mg,< 100 nM,< 100 µL/min/mg
"COc1ccc(-c2ccnc3c2C(=O)N(CCc2nc4ccccc4s2)C3)cc1 [compound 541, 6-[2-(1,3-Benzothiazol-2-yl)ethyl]-4-(4-methoxyphenyl)-7H-pyrrolo[3,4-b]pyridin-5-one trifluoroacetate]",100 to 220 µL/min/mg,100 to 200 nM,< 100 µL/min/mg
"O=C1c2c(-c3ccc(F)cc3)ccnc2CN1CCc1nc2ccccc2s1 [compound 542, 6-[2-(1,3-Benzothiazol-2-yl)ethyl]-4-(4-fluorophenyl)-7H-pyrrolo[3,4-b]pyridin-5-one trifluoroacetate]",100 to 220 µL/min/mg,100 to 200 nM,< 100 µL/min/mg
"O=C1c2c(-c3cncnc3)ccnc2CN1CCc1nc2ccccc2s1 [compound 544, 6-[2-(1,3-Benzothiazol-2-yl)ethyl]-4-pyrimidin-5-yl-7H-pyrrolo[3,4-b]pyridin-5-one]",< 100 µL/min/mg,100 to 200 nM,< 100 µL/min/mg
"O=C1c2c(OCF)ccc(-c3cncnc3)c2C(=O)N1CCc1cn2ccccc2n1 [compound 545, 4-(Fluoromethoxy)-2-(2-imidazo[1,2-a]pyridin-2-ylethyl)-7-pyrimidin-5-yl-isoindoline-1,3-dione]",< 100 µL/min/mg,< 100 nM,< 100 µL/min/mg
"COc1ccc(-c2cncnc2)c2c1C(=O)N(CCc1cn3ccccc3n1)C2 [compound 549, 2-(2-Imidazo[1,2-a]pyridin-2-yl-ethyl)-7-methoxy-4-pyrimidin-5-yl-2,3-dihydro-isoindol-1-one trifluoroacetate]",< 100 µL/min/mg,< 100 nM,< 100 µL/min/mg
"O=C1c2c(N3CCOCC3)ccnc2CN1CCc1ccccn1 [compound 550, 4-Morpholino-6-[2-(2-pyridyl)ethyl]-7H-pyrrolo[3,4-b]pyridin-5-one]",< 100 µL/min/mg,200 to 500 nM,< 100 µL/min/mg
"Cc1ccc(CCN2Cc3nccc(N4CCOCC4)c3C2=O)nc1 [compound 551, 6-[2-(5-Methyl-2-pyridyl)ethyl]-4-morpholino-7H-pyrrolo[3,4-b]pyridin-5-one]",< 100 µL/min/mg,< 100 nM,< 100 µL/min/mg
"CCc1ccn2cc(CCN3Cc4nccc(-c5ccncc5)c4C3=O)nc2c1 [compound 552, 6-[2-(7-Ethylimidazo[1,2-a]pyridin-2-yl)ethyl]-4-(4-pyridyl)-7H-pyrrolo[3,4-b]pyridin-5-one]",100 to 220 µL/min/mg,< 100 nM,< 100 µL/min/mg
"COc1cccc(CCN2Cc3nccc(-c4ccncc4)c3C2=O)n1 [compound 553, 6-[2-(6-Methoxy-2-pyridyl)ethyl]-4-(4-pyridyl)-7H-pyrrolo[3,4-b]pyridin-5-one]",100 to 220 µL/min/mg,< 100 nM,100 to 220 µL/min/mg
"Cc1ccc(CCN2Cc3nccc(N4CCOCC4)c3C2=O)nc1C [compound 554, 6-[2-(5,6-Dimethyl-2-pyridyl)ethyl]-4-morpholino-7H-pyrrolo[3,4-b]pyridin-5-one]",100 to 220 µL/min/mg,< 100 nM,100 to 220 µL/min/mg
"CCc1ccn2cc(CCN3Cc4nccc(N5CCOCC5)c4C3=O)nc2c1 [compound 555, 6-[2-(7-Ethylimidazo[1,2-a]pyridin-2-yl)ethyl]-4-morpholino-7H-pyrrolo[3,4-b]pyridin-5-one]",< 100 µL/min/mg,< 100 nM,100 to 220 µL/min/mg
